Measurements: ChEMBL document CHEMBL1201862, “PubChem BioAssay data set” (2004)
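Where inhibition never reached the appropriate level, the endpoint shown equals the highest concentration tested. Otherwise, values were interpolated linearly from a five-concentration, 48-hour dose response in 96-well plates. GI50: concentration for 50% inhibition of growth.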 Activity calls are given as the source filed them. No stated cut-off is given here; in the data, active = GI50 up to about 1.1 µM and inactive = higher.

Legend:
Experiment in all cases: inhibition of tumour cell growth, NCI panel, 48 h
A549 = test system: A549
ACHN = test system: ACHN
HCC 2998 = test system: HCC 2998
HCT-116 = test system: HCT-116
IGROV-1 = test system: IGROV-1
MCF7 = test system: MCF7
NCI-H226 = test system: NCI-H226
NCI-H460 = test system: NCI-H460
OVCAR-3 = test system: OVCAR-3
OVCAR-4 = test system: OVCAR-4
OVCAR-8 = test system: OVCAR-8
SF-268 = test system: SF-268
SF-539 = test system: SF-539
SK-MEL-28 = test system: SK-MEL-28
SW-620 = test system: SW-620
TK-10 = test system: TK-10
UACC-257 = test system: UACC-257
UACC-62 = test system: UACC-62
UO-31 = test system: UO-31
NCI-H23 = test system: NCI-H23

SMILES | GI50 (A549) | GI50 (ACHN) | GI50 (HCC 2998) | GI50 (HCT-116) | GI50 (IGROV-1) | GI50 (MCF7) | GI50 (NCI-H226) | GI50 (NCI-H460) | GI50 (OVCAR-3) | GI50 (OVCAR-4) | GI50 (OVCAR-8) | GI50 (SF-268) | GI50 (SF-539) | GI50 (SK-MEL-28) | GI50 (SW-620) | GI50 (TK-10) | GI50 (UACC-257) | GI50 (UACC-62) | GI50 (UO-31) | GI50 (NCI-H23)
CCCC(C(=O)Nc1cccc2nc[nH]c12)C(=O)OCC (stereo not drawn) | > 100 µM (inactive) | > 100 µM (inactive) | > 100 µM (inactive) | > 100 µM (inactive) | > 100 µM (inactive) | > 100 µM (inactive) | > 100 µM (inactive) | > 100 µM (inactive) | 67.8 µM (inactive) | > 100 µM (inactive) | > 100 µM (inactive) | > 100 µM (inactive) | > 100 µM (inactive) | > 100 µM (inactive) | > 100 µM (inactive) | > 100 µM (inactive) | > 100 µM (inactive) | > 100 µM (inactive) | > 100 µM (inactive) | 
CC(C)(C)c1nc2c(o1)/C(=N\c1ccc(F)cc1)c1ccccc1C2=O | 6.49 µM (inactive) | 4.85 µM (inactive) | 9.12 µM (inactive) | 5.12 µM (inactive) | 14.9 µM (inactive) | 4.13 µM (inactive) | 16.9 µM (inactive) | 5.74 µM (inactive) | 1.06 µM (active) | 28.8 µM (inactive) | 7.21 µM (inactive) | 10.6 µM (inactive) | 4.6 µM (inactive) | 10.9 µM (inactive) | 4.27 µM (inactive) | 35.7 µM (inactive) | 2.36 µM (inactive) | 2.55 µM (inactive) | 4.59 µM (inactive) | 2.26 µM (inactive)
O=C(OCCN=C1c2ccccc2CCc2ccccc21)c1ccccc1 | > 100 µM (inactive) | > 100 µM (inactive) | > 100 µM (inactive) | > 100 µM (inactive) | > 100 µM (inactive) | > 100 µM (inactive) | 53.1 µM (inactive) | > 100 µM (inactive) | > 100 µM (inactive) | > 100 µM (inactive) | > 100 µM (inactive) | > 100 µM (inactive) | > 100 µM (inactive) | > 100 µM (inactive) | > 100 µM (inactive) | > 100 µM (inactive) | > 100 µM (inactive) | > 100 µM (inactive) | > 100 µM (inactive) | > 100 µM (inactive)
COC(=O)C1CC2CC1C1C2SC(F)(F)C1(F)F (stereo not drawn) | > 100 µM (inactive) | > 100 µM (inactive) | > 100 µM (inactive) | > 100 µM (inactive) | > 100 µM (inactive) | > 100 µM (inactive) | > 100 µM (inactive) | > 100 µM (inactive) | > 100 µM (inactive) | > 100 µM (inactive) | > 100 µM (inactive) | > 100 µM (inactive) | > 100 µM (inactive) | > 100 µM (inactive) | > 100 µM (inactive) | > 100 µM (inactive) | > 100 µM (inactive) | > 100 µM (inactive) | > 100 µM (inactive) | 
O=[N+]([O-])C(=C/c1cccc2ccccc12)/C(=C\c1cccc2ccccc12)[N+](=O)[O-] | 15.3 µM (inactive) | 2.13 µM (inactive) | 2.42 µM (inactive) | 2.49 µM (inactive) | 1.79 µM (inactive) | 2.99 µM (inactive) | 4.85 µM (inactive) | 2.34 µM (inactive) | 4.02 µM (inactive) | 2.91 µM (inactive) | 2.42 µM (inactive) | 2.32 µM (inactive) | 2.21 µM (inactive) | 1.83 µM (inactive) | 1.89 µM (inactive) | 2.17 µM (inactive) | 2.32 µM (inactive) | 1.71 µM (inactive) | 1.85 µM (inactive) | 1.98 µM (inactive)
